The text below walks through data of patent US12295936B2, “Immunomodulating urea azalides” (Zoetis Services LLC, priority 2020, dated 2025).

A value given as a limit tells only on which side of the number the result lay.

This assay deals with BRD pathogens, M. haemolytica and P. multocida. Nature of the assay: MIC screening panel of BRD pathogens (antibacterial / non-antibacterial). Conditions: read-out: antibacterial / non-antibacterial (MIC for the BRD pathogens).
`CC[C@H]1OC(=O)[C@H](C)[C@@H](O[C@H]2C[C@@](C)(OC)[C@](O)(Cn3cccn3)[C@H](C)O2)[C@H](C)[C@@H](O[C@@H]2O[C@H](C)C[C@H](N(C)C(=O)N(C)c3ccccc3)[C@H]2O)[C@](C)(O)C[C@@H](C)CN[C@H](C)[C@@H](O)[C@]1(C)O` [Example J-23, 1-((2S,3R,4S,6R)-2-(((2R,3S,4R,5R,8R,10R,11R,12S,13S,14R)-13-(((2R,4R,5S,6S)-5-((1H-pyrazol-1-yl)methyl)-5-hydroxy-4-methoxy-4,6-dimethyltetrahydro-2H-pyran-2-yl)oxy)-2-ethyl-3,4,10-trihydroxy-3,5,8,10,12,14-hexamethyl-15-oxo-1-oxa-6-azacyclopentadecan-11-yl)oxy)-3-hydroxy-6-methyltetrahydro-2H-pyran-4-yl)-1,3-dimethyl-3-phenylurea]: the MIC was more than 64 µg/mL.
The same measure for `CC[C@H]1OC(=O)[C@H](C)[C@@H](O)[C@H](C)[C@@H](O[C@@H]2O[C@H](C)C[C@H](N(C)C(=O)Nc3ccccc3F)[C@H]2O)[C@](C)(O)C[C@@H](C)CN[C@H](C)[C@@H](O)[C@]1(C)O` [Example A-17, 1-((2S,3R,4S,6R)-2-(((2R,3S,4R,5R,8R,10R,11R,12S,13S,14R)-2-ethyl-3,4,10,13-tetrahydroxy-3,5,8,10,12,14-hexamethyl-15-oxo-1-oxa-6-azacyclopentadecan-11-yl)oxy)-3-hydroxy-6-methyltetrahydro-2H-pyran-4-yl)-3-(2-fluorophenyl)-1-methylurea]: more than 64 µg/mL; for `CC[C@H]1OC(=O)[C@H](C)[C@@H](O)[C@H](C)[C@@H](O[C@@H]2O[C@H](C)C[C@H](N(C)C(=O)Nc3ccc(Cl)cc3)[C@H]2O)[C@](C)(O)C[C@@H](C)CN[C@H](C)[C@@H](O)[C@]1(C)O` [Example A-19, 3-(4-chlorophenyl)-1-((2S,3R,4S,6R)-2-(((2R,3S,4R,5R,8R,10R,11R,12S,13S,14R)-2-ethyl-3,4,10,13-tetrahydroxy-3,5,8,10,12,14-hexamethyl-15-oxo-1-oxa-6-azacyclopentadecan-11-yl)oxy)-3-hydroxy-6-methyltetrahydro-2H-pyran-4-yl)-1-methylurea]: more than 64 µg/mL.
The same measure for `CCCNC[C@]1(O)[C@H](C)O[C@@H](O[C@H]2[C@H](C)[C@@H](O[C@@H]3O[C@H](C)C[C@H](N(C)C(=O)N(c4ccccc4)C4CCOCC4)[C@H]3O)[C@](C)(O)C[C@@H](C)CN[C@H](C)[C@@H](O)[C@](C)(O)[C@@H](CC)OC(=O)[C@@H]2C)C[C@@]1(C)OC` [Example H-55, 1-((2S,3R,4S,6R)-2-(((2R,3S,4R,5R,8R,10R,11R,12S,13S,14R)-2-ethyl-3,4,10-trihydroxy-13-(((2R,4R,5S,6S)-5-hydroxy-4-methoxy-4,6-dimethyl-5-((propylamino)methyl)tetrahydro-2H-pyran-2-yl)oxy)-3,5,8,10,12,14-hexamethyl-15-oxo-1-oxa-6-azacyclopentadecan-11-yl)oxy)-3-hydroxy-6-methyltetrahydro-2H-pyran-4-yl)-1-methyl-3-phenyl-3-(tetrahydro-2H-pyran-4-yl)urea]: more than 64 µg/mL.
The same measure for `CC[C@H]1OC(=O)[C@H](C)[C@@H](O[C@H]2C[C@@](C)(OC)[C@](O)(CNCCCn3ccccc3=O)[C@H](C)O2)[C@H](C)[C@@H](O[C@@H]2O[C@H](C)C[C@H](N(C)C(=O)N(C)c3ccccc3)[C@H]2O)[C@](C)(O)C[C@@H](C)CN[C@H](C)[C@@H](O)[C@]1(C)O` [Example H-47, 1-((2S,3R,4S,6R)-2-(((2R,3S,4R,5R,8R,10R,11R,12S,13S,14R)-2-ethyl-3,4,10-trihydroxy-13-(((2R,4R,5S,6S)-5-hydroxy-4-methoxy-4,6-dimethyl-5-(((3-(2-oxopyridin-1(2H)-yl)propyl)amino)methyl)tetrahydro-2H-pyran-2-yl)oxy)-3,5,8,10,12,14-hexamethyl-15-oxo-1-oxa-6-azacyclopentadecan-11-yl)oxy)-3-hydroxy-6-methyltetrahydro-2H-pyran-4-yl)-1,3-dimethyl-3-phenylurea]: more than 64 µg/mL; for `CC[C@H]1OC(=O)[C@H](C)[C@@H](O)[C@H](C)[C@@H](O[C@@H]2O[C@H](C)C[C@H](N(C)C(=O)Nc3ccc(C)cc3)[C@H]2O)[C@](C)(O)C[C@@H](C)CN[C@H](C)[C@@H](O)[C@]1(C)O` [Example A-24, 1-((2S,3R,4S,6R)-2-(((2R,3S,4R,5R,8R,10R,11R,12S,13S,14R)-2-ethyl-3,4,10,13-tetrahydroxy-3,5,8,10,12,14-hexamethyl-15-oxo-1-oxa-6-azacyclopentadecan-11-yl)oxy)-3-hydroxy-6-methyltetrahydro-2H-pyran-4-yl)-1-methyl-3-(p-tolyl)urea]: more than 64 µg/mL; for `CC[C@H]1OC(=O)[C@H](C)[C@@H](O[C@H]2C[C@@](C)(OC)[C@](O)(CN(C)C)[C@H](C)O2)[C@H](C)[C@@H](O[C@@H]2O[C@H](C)C[C@H](N(C)C(=O)Nc3ccccc3)[C@H]2O)[C@](C)(O)C[C@@H](C)CN[C@H](C)[C@@H](O)[C@]1(C)O` [Example H-2, 1-((2S,3R,4S,6R)-2-(((2R,3S,4R,5R,8R,10R,11R,12S,13S,14R)-13-(((2R,4R,5S,6S)-5-((dimethylamino)methyl)-5-hydroxy-4-methoxy-4,6-dimethyltetrahydro-2H-pyran-2-yl)oxy)-2-ethyl-3,4,10-trihydroxy-3,5,8,10,12,14-hexamethyl-15-oxo-1-oxa-6-azacyclopentadecan-11-yl)oxy)-3-hydroxy-6-methyltetrahydro-2H-pyran-4-yl)-1-methyl-3-phenylurea]: more than 64 µg/mL.
Regarding `CCCNC[C@]1(O)[C@H](C)O[C@@H](O[C@H]2[C@H](C)[C@@H](O[C@@H]3O[C@H](C)C[C@H](N(C)C(=O)N(CC)c4ccccc4)[C@H]3O)[C@](C)(O)C[C@@H](C)CN[C@H](C)[C@@H](O)[C@](C)(O)[C@@H](CC)OC(=O)[C@@H]2C)C[C@@]1(C)OC` [Example H-16, 1-ethyl-3-((2S,3R,4S,6R)-2-(((2R,3S,4R,5R,8R,10R,11R,12S,13S,14R)-2-ethyl-3,4,10-trihydroxy-13-(((2R,4R,5S,6S)-5-hydroxy-4-methoxy-4,6-dimethyl-5-((propylamino)methyl)tetrahydro-2H-pyran-2-yl)oxy)-3,5,8,10,12,14-hexamethyl-15-oxo-1-oxa-6-azacyclopentadecan-11-yl)oxy)-3-hydroxy-6-methyltetrahydro-2H-pyran-4-yl)-3-methyl-1-phenylurea], the MIC is more than 64 µg/mL.
Under `CCCNC[C@]1(O)[C@H](C)O[C@@H](O[C@H]2[C@H](C)[C@@H](O[C@@H]3O[C@H](C)C[C@H](N(C)C(=O)Nc4ccccc4Cl)[C@H]3O)[C@](C)(O)C[C@@H](C)CN[C@H](C)[C@@H](O)[C@](C)(O)[C@@H](CC)OC(=O)[C@@H]2C)C[C@@]1(C)OC` [Example H-80, 3-(2-chlorophenyl)-1-((2S,3R,4S,6R)-2-(((2R,3S,4R,5R,8R,10R,11R,12S,13S,14R)-2-ethyl-3,4,10-trihydroxy-13-(((2R,4R,5S,6S)-5-hydroxy-4-methoxy-4,6-dimethyl-5-((propylamino)methyl)tetrahydro-2H-pyran-2-yl)oxy)-3,5,8,10,12,14-hexamethyl-15-oxo-1-oxa-6-azacyclopentadecan-11-yl)oxy)-3-hydroxy-6-methyltetrahydro-2H-pyran-4-yl)-1-methylurea] stands more than 64 µg/mL.
